From ChEMBL document CHEMBL1150587, “Evaluation of the potential cancer chemotherapeutic efficacy of natural product isolates employing in vivo hollow fiber tests” (J Nat Prod, 2002)

Columns and labels:
LNCaP = experiment: Cytotoxicity against human LNCAP cells after 72 hrs by SRB assay; assay type: functional, cell-based
SW626 [1] = experiment: Cytotoxicity against human SW626 cells after 72 hrs by SRB assay; assay type: functional, cell-based; conditions: SW626, 72 h
SK-MEL-2 = experiment: Cytotoxicity against human SK-MEL-2 cells after 72 hrs by SRB assay; assay type: functional, cell-based; conditions: SK-MEL-2, 72 h
SW626 [2] = experiment: Growth inhibition of human SW626 cells implanted subcutaneously to NCr nu/nu mouse at 128 to 512 umol/kg, ip administered from day 3 to 6 after implantation measured on day 7 by MTT-based hollow-fiber test; assay type: functional
KB = experiment: Cytotoxicity against human KB cells after 72 hrs by SRB assay; assay type: functional, cell-based
[3] = Cytotoxicity against human KBV1 cells after 72 hrs by SRB assay; assay type: functional, cell-based; conditions: KB-V1, 72 h
[4] = Cytotoxicity against human BC1 cells after 72 hrs by SRB assay; conditions: BC1, 72 h
Mus musculus = experiment: Toxicity in NCr nu/nu mouse subcutaneously implanted with human SW626 cells assessed as body weight change at 128 to 512 umol/kg, ip administered from day 3 to 6 after implantation measured on day 7; assay type: organism-based; conditions: in vivo
MCF7 = experiment: Cytotoxicity against human MCF7 cells after 72 hrs by SRB assay; conditions: MCF7, 72 h
Col2 = experiment: Cytotoxicity against human Col2 cells after 72 hrs by SRB assay; assay type: functional, cell-based; conditions: Col2, 72 h
SW626 [5] = experiment: Growth inhibition of human SW626 cells implanted intraperitoneally to NCr nu/nu mouse at 128 to 512 umol/kg, ip administered from day 3 to 6 after implantation measured on day 7 by MTT-based hollow-fiber test; assay type: functional
P388 = experiment: Cytotoxicity against mouse P388 cells after 72 hrs by SRB assay; assay type: functional, cell-based; conditions: P388, 72 h
Lu1 = experiment: Cytotoxicity against human Lu1 cells after 72 hrs by SRB assay; assay type: functional, cell-based; conditions: Lu1, 72 h

`CC1(C)CCC2=C(O1)C(=O)c1ccccc1C2=O` [ALPHA-LAPACHONE] gave an IC50 (LNCaP) of 29.3 µM, an IC50 (SW626 [1]) of 12.4 µM and an IC50 (SK-MEL-2) of 7.9 µM. For the same compound, the “inhibition (INH)” value (SW626 [2]) was 10.3%, the IC50 (KB) was 53.7 µM and the IC50 [3] was 34.3 µM. The IC50 [4] was 27.7 µM, the Activity (Mus musculus) was 0.3 g and the IC50 (MCF7) was 38 µM. The IC50 (Col2) was 40.9 µM, the “inhibition (INH)” value (SW626 [5]) was 0% and the IC50 (P388) was 0.8 µM. It also gave an IC50 (Lu1) of 21.9 µM.
